The text below walks through data of US20090311344A1, “Dosing Regimen” (priority 2008, published 2009).

Data set [1] is described as follows: Single dose study in healthy subjects: pharmacokinetics. The class given is in vivo, human. As for the experimental part: The median tmax of the TPO mimetic peptide compound ranged between 0.09 to 2 hours following single i.v. administration. […] However, the elimination phase appeared consistent across the dose range.
Data set [2] is described as follows: toxicity / side effects in HT-29 tumor-bearing mice.
Text: Animals were weighed daily for the first five days of the study and then twice weekly.
Animals were monitored for adverse treatment-related effects by frequent observation and body-weight (BW) measurements (data not shown).

For the substance “Methoxypolyethyleneglycol20000-propionyl-L-Isoleucyl-L-Glutamyl-Glycyl-L-Prolyl-L-Threonyl-L-Leucyl-L-Arginyl-L-Glutaminyl-L-2-Naphthylalanyl-L-Leucyl-L-Alanyl-L-Alanyl-L-Arginyl-Sarcosyl-Ne-(methoxypolyethyleneglycol20000-propionyl-L-Isoleucyl-L-Glutamyl-Glycyl-L-Prolyl-L-Threonyl-L-Leucyl-L-Arginyl-L-Glutaminyl-L-2-Naphthylalanyl-L-Leucyl-L-Alanyl-L-Alanyl-L-Arginyl-Sarcosyl-)-Lysinamide [TPO mimetic peptide compound]”, the Cmax dose proportionality entry in data set [1] is “increased approximately dose proportionally”. Moreover, in data set [1] (3 μg/kg, not well defined), the mean terminal half-life entry was “approximately 36 hours”. For the same substance, the AUC dose proportionality entry in data set [1] (1.5- to 3-μg/kg dose range) is reported as “no apparent dose proportionality”. In addition, the “large spleens in necropsied animals” value in data set [2] (Group 3) is recorded as “⅖”. The “mean BW losses” value in data set [2] (monotherapy (Group 3)) is “no mean BW losses”. Also, the tolerability result in data set [2] (monotherapy (Group 3), 0.2 mg/kg i.v. Days 2, 13) is “well tolerated”.
